In US20070128217A1 (priority 2003, published 2007):

What was measured:
[1] = tested on: antibodies in sera from SARS patients (sera 1a, 1b, 2, 6, 37, 62, London, SARS-yellow, SARS-green); type: binding, human; design: Binding of serum 6 to linear peptides of protein X1 of SARS-CoV Urbani / Binding of serum 37 to linear peptides of protein X1 of SARS-CoV Urbani / Binding of serum 6 to looped/cyclic peptide (PEPSCAN-ELISA) / Binding of serum 37 to looped/cyclic peptide (PEPSCAN-ELISA) / Binding of serum 37 to looped/cyclic peptides of protein X1 of SARS-CoV Urbani / Binding of serum 6 to linear peptides of protein X2 / Binding of serum 37 to linear peptides of protein X2 / Binding of serum 37 to looped/cyclic peptides of protein X2 of SARS-CoV Urbani / Binding of serum 6 to linear peptides of protein M of SARS-CoV Urbani / Binding of serum 37 to linear peptides of protein M of SARS-CoV Urbani / Binding of serum 6 to looped/cyclic peptides of protein M of SARS-CoV Urbani / Binding of serum 37 to looped/cyclic peptides of protein M of SARS-CoV Urbani / Binding of serum 6 to linear peptides of protein X3 of SARS-CoV Urbani / Binding of serum 37 to linear peptides of protein X3 of SARS-CoV Urbani / Binding of serum 37 to looped/cyclic peptides of protein X3 of SARS-CoV Urbani / Binding of serum 6 to linear peptides of protein X4 of SARS-CoV Urbani / Binding of serum 37 to linear peptides of protein X4 of SARS-CoV Urbani / Binding of serum 37 to looped/cyclic peptides of protein X4 of SARS-CoV Urbani / Binding of serum 6 to linear peptides of protein X5 of SARS-CoV Urbani / Binding of serum 37 to linear peptides of protein X5 of SARS-CoV Urbani / Binding of serum 37 to looped/cyclic peptides of protein X5 of SARS-CoV Urbani / Binding of serum 6 to linear peptides of protein N of SARS-CoV Urbani / Binding of serum 37 to linear peptides of protein N of SARS-CoV Urbani / Binding of serum 6 to linear peptide (PEPSCAN-ELISA) / Binding of serum 1a to looped/cyclic peptides of protein N of SARS-CoV Urbani / Binding of serum 1b to looped/cyclic peptides of protein N of SARS-CoV Urbani / Binding of serum 2 to looped/cyclic peptides of protein N of SARS-CoV Urbani / Binding of serum 6 to looped/cyclic peptides of protein N of SARS-CoV Urbani / Binding of serum 37 to looped/cyclic peptides of protein N of SARS-CoV Urbani / Binding of serum 62 to looped/cyclic peptides of protein N of SARS-CoV Urbani / Binding of serum London to looped/cyclic peptides of protein N of SARS-CoV Urbani / Binding of serum SARS-green to looped/cyclic peptides of protein N of SARS-CoV Urbani: unit not given here
[2] = tested on: control sera (pooled serum of ten healthy LUMC hospital workers; commercial negative donor pooled serum from the Dutch bloodbank); type: binding, human; design: Binding of Control serum LUMC to linear peptides / Binding of Control serum Blood-bank to linear peptides / Binding of Control serum LUMC to looped peptides / Binding of Control Serum Blood-Bank to Looped peptides / Binding of Control serum LUMC to linear peptides of the protein M of SARS-CoV Urbani / Binding of Control serum Blood-bank to linear peptides of the protein M of SARS-CoV Urbani / Binding of Control serum LUMC to looped peptides of the protein M of SARS-CoV Urbani / Binding of Control Serum Blood-Bank to Looped peptides of the protein M of SARS-CoV Urbani: unit not given here
[3] = tested on: rabbit serum obtained by immunizing a rabbit with the SARS-CoV strain Frankfurt 1; type: binding; design: Binding of a rabbit serum to linear peptides / Binding of a rabbit serum to looped peptides / Rabbit serum linear peptides / Rabbit serum looped peptides / Binding of a rabbit serum to linear peptides of protein N of SARS-CoV Urbani (Rabbit serum linear peptides) / Binding of a rabbit serum to looped/cyclic peptides of protein N of SARS-CoV Urbani (Rabbit serum looped peptides): unit not given here
[4] = tested on: recombinant human anti-SARS-CoV antibody 03-018; type: binding; design: Binding of antibody 03-018 to linear peptides of the N protein of SARS-CoV Urbani / Binding of antibody 03-018 to looped/cyclic peptides of the N protein of SARS-CoV Urbani: unit not given here

Sequence | Binding of serum 1a to linear peptides of protein N of SARS-CoV Urbani [1] | Binding of serum 1a to looped/cyclic peptides of protein N of SARS-CoV Urbani [1] | Binding of serum 1b to linear peptides of protein N of SARS-CoV Urbani [1] | Binding of serum 1b to looped/cyclic peptides of protein N of SARS-CoV Urbani [1] | Binding of serum 2 to linear peptides of protein N of SARS-CoV Urbani [1] | Binding of serum 2 to looped/cyclic peptides of protein N of SARS-CoV Urbani [1] | Binding of serum 6 to linear peptides of protein N of SARS-CoV Urbani [1] | Binding of serum 6 to looped/cyclic peptides of protein N of SARS-CoV Urbani [1] | Binding of serum 37 to linear peptides of protein N of SARS-CoV Urbani [1] | Binding of serum 37 to looped/cyclic peptides of protein N of SARS-CoV Urbani [1] | Binding of serum 62 to linear peptides of protein N of SARS-CoV Urbani [1] | Binding of serum 62 to looped/cyclic peptides of protein N of SARS-CoV Urbani [1] | Binding of serum London to linear peptides of protein N of SARS-CoV Urbani [1] | Binding of serum London to looped/cyclic peptides of protein N of SARS-CoV Urbani [1] | Binding of serum SARS-green to looped/cyclic peptides of protein N of SARS-CoV Urbani [1] | Binding of serum SARS-yellow to looped/cyclic peptides of protein N of SARS-CoV Urbani [1] | Binding of a rabbit serum to linear peptides of protein N of SARS-CoV Urbani (Rabbit serum linear peptides) [3] | Binding of a rabbit serum to looped/cyclic peptides of protein N of SARS-CoV Urbani (Rabbit serum looped peptides) [3] | Binding of antibody 03-018 to linear peptides of the N protein of SARS-CoV Urbani [4] | Binding of antibody 03-018 to looped/cyclic peptides of the N protein of SARS-CoV Urbani [4] | other results
DMDDFSRQLQNSMSG | 0.2 | 0.3 | 0.2 | 0.1 | 0.2 | 0.3 | 0.3 | 0.0 | 0.8 | 0.4 | 0.7 | 0.2 | 0.7 | 0.2 | 0.0 | 0.2 | 0.2 | 0.4 | 0.1 | 0.2 | Binding of serum SARS-green to linear peptides of protein N of SARS-CoV Urbani [1]: 0.3; Binding of serum SARS-yellow to linear peptides of protein N of SARS-CoV Urbani [1]: 0.7; Control Serum Blood-Bank Looped peptides [2]: 0.4; Control serum Blood-bank linear peptides [2]: 0.8; Control serum LUMC linear peptides [2]: 0.6; Control serum LUMC looped peptides [2]: 0.3
DNGPQSNQRSAPRIT | 0.2 | 0.2 | 0.1 | 0.1 | 0.3 | 0.1 | 0.2 | 0.2 | 0.6 | 0.5 | 0.5 | 0.3 | 0.4 | 0.2 | 0.2 | 0.1 | 0.1 | 0.3 | 0.2 | 0.3 | Binding of serum SARS-green to linear peptides of protein N of SARS-CoV Urbani [1]: 0.4; Binding of serum SARS-yellow to linear peptides of protein N of SARS-CoV Urbani [1]: 0.5; Binding of Control Serum Blood-Bank to Looped peptides [2]: 0.5; Binding of Control serum Blood-bank to linear peptides [2]: 0.7; Binding of Control serum LUMC to linear peptides [2]: 0.7; Binding of Control serum LUMC to looped peptides [2]: 0.4
DQDLIRQGTDYKHWP |  | 0.2 |  | 0.1 |  | 0.3 |  | 0.1 |  | 0.4 |  | 0.3 |  | 0.3 | 0.1 | 0.1 | 0.1 | 0.1 | 0.1 | 0.2 | Binding of serum 1a to linear peptide (PEPSCAN-ELISA) [1]: 0.3; Binding of serum 1b to linear peptide (PEPSCAN-ELISA) [1]: 0.1; Binding of serum 2 to linear peptide (PEPSCAN-ELISA) [1]: 0.2; Binding of serum 6 to linear peptide (PEPSCAN-ELISA) [1]: 0.2; Binding of serum 37 to linear peptide (PEPSCAN-ELISA) [1]: 0.7; Binding of serum 62 to linear peptide (PEPSCAN-ELISA) [1]: 0.6; Binding of serum London to linear peptide (PEPSCAN-ELISA) [1]: 0.8; Binding of serum SARS-green to linear peptide (PEPSCAN-ELISA) [1]: 0.5; Binding of serum SARS-yellow to linear peptide (PEPSCAN-ELISA) [1]: 0.7; Binding of Control Serum Blood-Bank to Looped peptides [2]: 0.4; Binding of Control serum Blood-bank to linear peptides [2]: 0.8; Binding of Control serum LUMC to linear peptides [2]: 0.7; Binding of Control serum LUMC to looped peptides [2]: 0.4
